Data: patent US6585953B2, “Synthesis of 17F labeled fluoroalkanes” (Wisconsin Alumni Research Foundation, priority 2000, dated 2003)

Experiments:
[1] = Clearance and distribution of inhaled tracer in test subjects; type: in vivo
Text: Positron emitting ^17F (Eβ^+(max)=1.74 MeV; t½≈64 seconds) has an ideal half life for probing such diverse processes as gray matter cerebral activity or gas-phase reactions on an industrial scale. Because of the very short half life of ^17F, tracers labeled with this isotope such as ^17F labeled fluoromethane provide very short half life cerebral blood flow agents that have important application in PET studies of seizure and other transient brain phenomena. The shorter half life of ^17F with respect to ^15O permits repeat images to be obtained twice as fast with ^17F labeled tracers as compared to ^15O labeled tracers such as water which is presently in wide use as a tracer as described above. The ability to scan twice as fast using ^17F labeled tracers allows more data to be collected in the same amount of time and should allow more test subjects to be evaluated using instruments that are currently in high demand. Additionally, ^17F labeled tracers show improved signal to noise level ratios over ^15O labeled tracers providing increased sensitivity. ^15O tracers such as ^15O labeled water are usually administered in a manner that is more invasive than are tracers such as ^17F labeled fluoromethane. For example, ^15O labeled tracers are usually administered by injection and arterial measurements are then made from an arterial cannulation. On the other hand, ^17F labeled tracers such as fluoromethane may be administered by having a test subject inhale the tracer, and arterial measurements can be made from exhalations.
FIG. 5 is a gas chromatograph (Porpak Q column; He carrier gas; thermal conductivity detector, electrochemical detector, and positron coincidence radiation detector) showing the radiochemical purity of ^17F labeled fluoromethane produced by the present invention. The radiochemical purity of the ^17F labeled fluoromethane was determined to be 91 percent with only ^17F labeled CF4 from the target as a radiochemical impurity. […] Thus, the presence of CF4 only impacts the dosimetry to the lungs and trachea.

[2] = cited from earlier work

SMILES: FC(F)(F)F [CF4]
- distribution into blood when inhaled ([1]; inhaled as tracer impurity, only impacts dosimetry to lungs and trachea): stays out of the blood

SMILES: [15OH2] [^15O labeled water]
- permeability surface product ([2]; at high flows the signal is reduced): relatively low
- clearance from test subjects ([2]; usually administered by injection): slow to clear

SMILES: C[17F] [^17F labeled fluoromethane]
- clearance ([1]; by exhalation): rapidly cleared by exhalation
- biological half life ([1]; in vivo): quite short
